Laboratory results published in patent US9926319B2, “Pyridyl piperidines” (MERCK PATENT GMBH, priority 2014, dated 2018).

assay: CLint (intrinsic clearance) assay, microsomal incubation; type: in vitro ADME, Human; details: human liver microsomes 0.5 mg/mL protein, NADPH, 37° C., up to 30 min
Method: 2. CLint (Intrinsic Clearance) Assay
A Tecan Genesis workstation (RWS ASY 150/8) was used to perform the microsomal incubations. Analysis was carried out using a Waters ACQUITY UPLC system coupled to an ABSciex API3000 mass spectrometer. Data analysis was performed using Assay Explorer (Symyx).
0.1 M potassium phosphate buffer pH 7.4 containing 1 mM MgCl2
15 mM NADPH in phosphate buffer
5.0 mg protein/mL liver microsomes in phosphate buffer
Each experiment consists of 12 test and 2 reference compounds. The reference compounds are incubated as a cocktail.
Dilution of test compounds was done in 2 steps from a 10 mM DMSO stock solution. First 4 μL stock solution was added to 196 μL of 20% DMSO in potassium phosphate buffer pH 7.4. In a second step 10 μL of the first dilution were added to […] potassium phosphate buffer and 100 μL internal standard solution to a final concentration of 0.8 μM. 100 μL of the final compound dilution were aliquoted into a 96 deep well plate. 12.5 μL liver microsomes were added to each well (0.5 mg/mL final protein concentration) and the samples preincubated for 5 min at 37° C. and 800 rpm agitation.
After the preincubation, 250 μL cold acetonitrile were added to the 0 min samples to prevent a reaction. Following this, 12.5 μL NADPH solution were added to all wells to start the incubation, with the exception of the 0 min and 30 min controls without cofactor, where the NADPH was substituted for phosphate buffer.
The incubations were stopped after 5, 10, 20 and 30 min by adding 250 μL cold acetonitrile to the individual wells.
The quenched samples were then centrifuged at 4000 g for 1 h at 4° C. 100 μL of the supernatant were transferred into 96 well plates for analysis.
The metabolic stability of each compound was determined by measurement of the change in LC-MS/MS peak area over time. Assay Explorer software was used to automatically calculate the slope k of the decline. The intrinsic clearance (CLint) of each compound was then calculated according to the formula: CLint(μL/min/mg protein)=k1000/protein concentration.
CLint is shown for each compound in Table 3 below.

Compared with O=C1NCCC12CCN(c1c(Cl)cncc1-c1ccc(-c3cnn(CCO)c3)cc1)CC2 [Example 5, 8-(3-Chloro-5-{4-[1-(2-hydroxy-ethyl)-1H-pyrazol-4-yl]-phenyl}-pyridin-4-yl)-2,8-diaza-spiro[4.5]decan-1-one], CC(C)(O)Cn1cc(-c2ccc(-c3cncc(Cl)c3N3CCC4(CCNC4=O)CC3)cc2)cn1 [Example 47, 8-(3-Chloro-5-{4-[1-(2-hydroxy-2-methyl-propyl)-1H-pyrazol-4-yl]-phenyl}-pyridin-4-yl)-2,8-diaza-spiro[4.5]decan-1-one] is 1.7-fold lower in “Human Clint” value: 40 µL/min/mg for the first, 23 µL/min/mg for the second.

First: Nc1n[nH]c2cc(-c3cncc(Cl)c3N3CCC4(CCNC4=O)CC3)ccc12 [Example 7, 8-[3-(3-Amino-1H-indazol-6-yl)-5-chloro-pyridin-4-yl]-2,8-diaza-spiro[4.5]decan-1-one]
Second: CNc1n[nH]c2cc(-c3cncc(Cl)c3N3CCC4(CCNC4=O)CC3)ccc12 [Example 34, 8-[3-Chloro-5-(3-methylamino-1H-indazol-6-yl)-pyridin-4-yl]-2,8-diaza-spiro[4.5]decan-1-one]
The “Human Clint” value of the first is 1.9-fold lower: 27 µL/min/mg for the first, 52 µL/min/mg for the second.

Going from Cn1cc(-c2ccc(-c3cncc(Cl)c3N3CCC4(CC3)CNC(=O)O4)cc2)cn1 [Example 9, 8-{3-Chloro-5-[4-(1-methyl-1H-pyrazol-4-yl)-phenyl]-pyridin-4-yl}-1-oxa-3,8-diaza-spiro[4.5]decan-2-one] to Cn1cc(-c2ccc(-c3cncc(C(F)(F)F)c3N3CCC4(CCNC4=O)CC3)cc2)cn1 [Example 45, 8-{3-[4-(1-Methyl-1H-pyrazol-4-yl)-phenyl]-5-trifluoromethyl-pyridin-4-yl}-2,8-diaza-spiro[4.5]decan-1-one], the “Human Clint” value rises from 40 µL/min/mg to 81 µL/min/mg (2-fold).

Compared with Cc1nc(-c2ccc(-c3cncc(Cl)c3N3CCC4(CCNC4=O)CC3)cc2)cn1C [Example 18, 8-{3-Chloro-5-[4-(1,2-dimethyl-1H-imidazol-4-yl)-phenyl]-pyridin-4-yl}-2,8-diaza-spiro[4.5]decan-1-one], Cn1nc(N)c2ccc(-c3cncc(Cl)c3N3CCC4(CCNC4=O)CC3)cc21 [Example 24, 8-[3-(3-Amino-1-methyl-1H-indazol-6-yl)-5-chloro-pyridin-4-yl]-2,8-diaza-spiro[4.5]decan-1-one] is 6-fold higher in “Human Clint” value: 13 µL/min/mg for the first, 78 µL/min/mg for the second.

CN1c2ccc(-c3cncc(Cl)c3N3CCC4(CC3)NC(=O)NC4=O)cc2CS1(=O)=O [Example 37, 8-[3-Chloro-5-(1-methyl-2,2-dioxo-2,3-dihydro-1H-2l6-benzo[c]isothiazol-5-yl)-pyridin-4-yl]-1,3,8-triaza-spiro[4.5]decane-2,4-dione] and CC1=NC2(CCN(c3c(Cl)cncc3-c3ccc4c(c3)CS(=O)(=O)N4C)CC2)C(=O)N1 [Example 46, 8-[3-Chloro-5-(1-methyl-2,2-dioxo-2,3-dihydro-1H-2l6-benzo[c]isothiazol-5-yl)-pyridin-4-yl]-2-methyl-1,3,8-triaza-spiro[4.5]dec-1-en-4-one] are within 1.5-fold of each other in “Human Clint” value: 11 µL/min/mg for the first, 16 µL/min/mg for the second.

In the case of CC1=NNC(=O)C12CCN(c1c(Cl)cncc1-c1ccc3c(c1)CS(=O)(=O)N3C)CC2 [Example 41, 8-[3-Chloro-5-(1-methyl-2,2-dioxo-2,3-dihydro-1H-2l6-benzo[c]isothiazol-5-yl)-pyridin-4-yl]-4-methyl-2,3,8-triaza-spiro[4.5]dec-3-en-1-one], the “Human Clint” value was 85 µL/min/mg.

same assay, conditions: human, liver microsomes, pH 7.4, human liver microsomes 0.5 mg/mL protein, NADPH, 37° C., up to 30 min

Cn1cc(-c2ccc(-c3cncc(Cl)c3N3CCC4(CC3)NC(=O)NC4=O)cc2)cn1 [Example 13, 8-{3-Chloro-5-[4-(1-methyl-1H-pyrazol-4-yl)-phenyl]-pyridin-4-yl}-1,3,8-triaza-spiro[4.5]decane-2,4-dione] and Cn1cc(-c2ccc(-c3cncc(C(F)(F)F)c3N3CCC4(CC3)CNC(=O)O4)cc2)cn1 [Example 35, 8-{3-[4-(1-Methyl-1H-pyrazol-4-yl)-phenyl]-5-trifluoromethyl-pyridin-4-yl}-1-oxa-3,8-diaza-spiro[4.5]decan-2-one] cannot be ordered by microsomal CLint at 0.8 μM: < 10 µL/min/mg for the first, < 10 µL/min/mg for the second.
